In assay [1] the target is T1, 5-HT3 receptors expressed in guinea pig ileum (Cavia porcellus, UniProt O70212).
T1 construct: A segment (15 cm) of male guinea pig ileum was excised from the small intestine; from tissue; host or cells: isolated male guinea pig ileum segments in an organ bath
T1 sequence (O70212 20-490): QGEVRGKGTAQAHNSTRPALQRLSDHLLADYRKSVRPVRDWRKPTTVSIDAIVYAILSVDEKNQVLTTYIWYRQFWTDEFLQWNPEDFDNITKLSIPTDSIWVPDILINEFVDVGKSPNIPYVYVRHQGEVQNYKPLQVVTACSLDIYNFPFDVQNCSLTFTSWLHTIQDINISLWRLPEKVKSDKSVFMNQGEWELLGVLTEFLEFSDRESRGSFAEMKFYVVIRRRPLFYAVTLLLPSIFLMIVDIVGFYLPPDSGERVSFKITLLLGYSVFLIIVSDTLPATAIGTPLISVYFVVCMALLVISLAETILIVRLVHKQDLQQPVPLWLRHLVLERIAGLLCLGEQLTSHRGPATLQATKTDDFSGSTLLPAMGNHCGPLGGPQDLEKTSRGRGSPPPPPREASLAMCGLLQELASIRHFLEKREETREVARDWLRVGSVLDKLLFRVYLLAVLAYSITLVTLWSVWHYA
The assay is described as follows: guinea pig ileum contractions induced by serotonin. As to conditions: for type of antagonism at 5-HT3 receptors: from depression of serotonin maximum; for Kd: functional affinity, double-reciprocal plot, read-out: 5-HT3 receptor pK B ± S.E.M (converted). Type of assay: biochemical.

For assay [2], the target named is serotonin 5-HT1A receptor. Also on record: method as in PMID 26554929. As to conditions: previous experiments; read-out: 5-HT1A receptor antagonist IC50; cited from earlier work.
The subject of assay [3] is mice. As to conditions: scopolamine-induced deficits; cited from earlier work.
Details of assay [4]: method as in unpublished results. To be noted: ref unpublished results; cited from earlier work.
The target of assay [5] is serotonergic 5-HT2A receptors. Also noted: method as in PMID 26554929. As to conditions: read-out: affinity for serotonergic 5-HT2A receptors, Ki; cited from earlier work.
For assay [6], the target named is dopaminergic D2 receptors. Also on record: method as in PMID 26554929. To be noted: read-out: affinity for dopaminergic D2 receptors, Ki; cited from earlier work.
The test system of assay [7] is corticosterone-treated mice. The experiment in a line: forced swim test, single administration, corticosterone model. It is filed as in vivo. The procedure: Mice were injected with corticosterone (s.c., 20 mg/kg) at random times during the light phase for consecutive 21 days (Fig. 1c). The dose and route of administration of corticosterone were based on studies performed by Zhao and colleagues. After the end of the procedure, next day 30 min before the test, corticosterone-treated mice were given (i.p.) saline, HBK-15 (1.25 mg/kg), fluoxetine (10 mg/kg), or ketamine (1 mg/kg) (Fig. 1c). Control mice received (i.p.) saline. The experimental groups consisted of eight randomly selected animals. We chose the dose of HBK-15 that was active in the chronic experiments (i.e., 1.25 mg/kg). The dose of ketamine was based on the studies performed by Pazini and colleagues. Animals were tested in the forced swim test and spontaneous locomotor activity test. After behavioral testing, mice were scarified and their hippocampi collected for biochemical analysis.
Forced swim test was performed according to the method described by Porsolt and colleagues and previously described. Mice were placed individually for 6 min in glass cylinders (height 25 cm, diameter 10 cm) containing […] (23–25 °C). The total time of immobility was recorded during the final 4 min of the test. The experiments were recorded and scored using aLab.io software by a trained observer blind to the treatments.

Assay [8] deals with D2 receptors. Also noted: method as in unpublished results. To be noted: not measured here; ref unpublished results; read-out: D2 receptor antagonism IC50; cited from earlier work.
The target of assay [9] is 5-HT2A receptors. Also on record: method as in unpublished results. As to conditions: not measured here; ref unpublished results; read-out: 5-HT2A receptor antagonism IC50; cited from earlier work.

As to `COc1ccccc1N1CCN(CCOCCOc2c(C)cccc2C)CC1.Cl` [HBK-14, 1-[(2,6-Dimethylphenoxy)ethoxyethyl]-4-(2-methoxyphenyl)piperazine hydrochloride], in assay [1], the “type of antagonism at 5-HT3 receptors” value was “non-competitive antagonism” and the Kd was 11.2 nM. Moreover, in assay [2], the IC50 was 64 nM.
With `COc1ccccc1N1CCN(CCOCCOc2c(C)cccc2Cl)CC1.Cl` [HBK-15, 1-[(2-chloro-6-methylphenoxy)ethoxyethyl]-4-(2-methoxyphenyl)piperazine hydrochloride], the effect on memory entry in [3] was “showed memory-enhancing properties”. Besides, in assay [4], the “antipsychotic-like or cataleptogenic properties” value is given as “did not show antipsychotic-like or cataleptogenic properties”. In addition, the Ki in [5] is 109 nM; in [6], 54 nM. For the same compound, the “effect on corticosterone-induced increase in immobility” value in assay [7] (single 1.25 mg/kg i.p., 30 min before the test) is “reversed an increase in immobility”. In assay [1], the “type of antagonism at 5-HT3 receptors” value is recorded as “non-competitive interaction with 5-HT3 receptors”. Further, in assay [1], the Kd is 43.6 nM. Further, the IC50 in assay [8] is 68 nM; in [2] it was 19 nM; in assay [9], 4460 nM.
With `C[C@]12C[C@H](O)[C@H]3[C@@H](CCC4=CC(=O)CC[C@@]43C)[C@@H]1CC[C@@H]2C(=O)CO` [corticosterone], the “increase in immobility vs control” value in [7] (acute experiment, corticosterone 20 mg/kg s.c. 21 days + saline) is 20%.

Usually IC50 stands for the concentration at which inhibition is half-maximal. What is called Ki is the equilibrium dissociation constant of an inhibitor or competing ligand from its target.

(Values after article PMC5884906, “Single Administration of HBK-15—a Triple 5-HT1A, 5-HT7, and 5-HT3 Receptor Antagonist—Reverses Depressive-Like Behaviors in Mouse Model of Depression Induced by Corticosterone” (Molecular Neurobiology, 2017).)
